In ChEMBL document CHEMBL6096672, “In Silico Enabled Discovery of KAI-11101, a Preclinical DLK Inhibitor for the Treatment of Neurodegenerative Disease and Neuronal Injury” (J Med Chem, 2025):
≈ marks a conversion by molar mass, not a printed value. Values belong to the molecule of their own block, whether it stands above or below them. Calls of active or inactive are those of the source. The rule behind the calls is not given here.

Assays:
[1] = Ratio of unbound drug concentration in brain to plasma of CD-1 mouse at 5 to 75 mg/kg, po; assay type: ADME, organism-based; conditions: brain and plasma, dose 5-75 mg/kg, read-out: K(p,uu,brain)
CYP3A [2] = molecular target: T1, CYP3A (Homo sapiens, UniProt P08684+P20815+P24462+Q9HB55); test: Binding affinity to CYP3A in human liver microsomes assessed as inactivation constant; assay type: ADME, Microsome
[3] = Inhibition of GST-tagged DLK (1 to 520 residues)(unknown origin) using MKK4 as substrate preincubated for 60 mins followed by substrate/ATP addition measured after 30 mins by HTRF assay; set-up: species or system Homo sapiens
[4] = Half life in IV-dosed mouse; assay type: ADME; conditions: in vivo
CYP3A [5] = molecular target: T1, CYP3A; test: Binding affinity to CYP3A in human liver microsomes assessed as inhibition constant; assay type: ADME, Microsome
[6] = Clearance in IV-dosed mouse; assay type: ADME; conditions: in vivo
[7] = Volume of distribution at steady state in IV-dosed mouse; assay type: ADME; conditions: in vivo, read-out: Vdss
CYP3A4 = CYP3A4 (Homo sapiens, UniProt P08684); test: Time dependent inhibition of CYP3A4 (unknown origin) at 30 uM incubated for 30 mins relative to control; assay type: ADME; conditions: read-out: TDI
Sequence of CYP3A4 (P08684 whole entry): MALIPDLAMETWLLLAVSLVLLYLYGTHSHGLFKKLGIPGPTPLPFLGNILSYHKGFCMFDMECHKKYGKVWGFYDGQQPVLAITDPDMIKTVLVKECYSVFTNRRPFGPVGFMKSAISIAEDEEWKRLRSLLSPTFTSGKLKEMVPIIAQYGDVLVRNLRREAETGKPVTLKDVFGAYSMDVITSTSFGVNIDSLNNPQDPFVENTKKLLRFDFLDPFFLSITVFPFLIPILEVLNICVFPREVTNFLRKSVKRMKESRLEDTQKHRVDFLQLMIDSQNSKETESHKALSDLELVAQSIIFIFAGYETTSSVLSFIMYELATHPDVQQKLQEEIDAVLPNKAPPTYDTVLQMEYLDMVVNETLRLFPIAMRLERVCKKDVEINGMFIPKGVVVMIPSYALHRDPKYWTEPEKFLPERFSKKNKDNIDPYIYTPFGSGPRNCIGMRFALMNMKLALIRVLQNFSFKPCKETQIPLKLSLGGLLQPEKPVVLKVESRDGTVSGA

[8] = Drug metabolism in rat hepatocytes assessed as formation of N-methylated metabolites; assay type: ADME, cell-based, Hepatocyte
[9] = Clearance in IV-dosed dog; assay type: ADME, Canis lupus familiaris; conditions: in vivo
[10] = Oral bioavailability in cynomolgous monkey; assay type: ADME, organism-based, Macaca fascicularis; conditions: cynomolgus monkey, in vivo
[11] = Clearance in IV-dosed cynomolgous monkey; assay type: ADME, Macaca fascicularis; conditions: cynomolgus monkey, in vivo
[12] = Drug metabolism in PO-dosed dog plasma assessed as formation of N-methylated metabolites; assay type: ADME, Canis lupus familiaris
[13] = Half life in IV-dosed rat; assay type: ADME; conditions: in vivo
[14] = Inhibition of GST-tagged LZK (1 to 966 residues)(unknown origin) using MKK4 as substrate preincubated for 60 mins followed by substrate/ATP addition measured after 30 mins by HTRF assay; set-up: species or system Homo sapiens
[15] = Inhibition of human DLK transfected in HEK293-T-REx cells assessed as decrease in JNK phosphorylation incubated for 5 hrs by HTRF assay; assay type: cell-based
[16] = In vivo inhibition of DLK in mouse cerebellum at 3 to 75 mg/kg, po measured after 2 hrs; assay type: functional, organism-based
[17] = Oral bioavailability in mouse; assay type: ADME, organism-based; conditions: in vivo
[18] = Protection against paclitaxel-induced axon degeneration in C57/Bl6 mouse DRG neurons at 0.74 uM measured after 72 hrs by immunofluorescence based analysis relative to control; assay type: functional; conditions: C57/Bl6, DRG neuron
[19] = Volume of distribution at steady state in IV-dosed dog; assay type: ADME, Canis lupus familiaris; conditions: in vivo, read-out: Vdss
[20] = Ratio of unbound drug concentration in brain to plasma of rat; assay type: ADME; conditions: brain and plasma, read-out: K(p,uu,brain)
[21] = Total drug concentration in mouse brain at 3 to 75 mg/kg, po measured after 2 hrs; assay type: ADME, organism-based; conditions: dose 3-75 mg/kg, read-out: Ct
[22] = Drug metabolism in cynomolgous monkey hepatocytes assessed as formation of N-methylated metabolites; assay type: ADME, cell-based, Macaca fascicularis, Hepatocyte; conditions: cynomolgus monkey
[23] = Total unbound drug concentration in mouse brain at 3 to 75 mg/kg, po measured after 2 hrs; assay type: ADME, organism-based; conditions: in vivo, dose 3-75 mg/kg
[24] = Drug metabolism in human hepatocytes assessed as formation of N-methylated metabolites; assay type: ADME, cell-based, Hepatocyte
[25] = Half life in IV-dosed cynomolgous monkey; assay type: ADME, Macaca fascicularis; conditions: cynomolgus monkey, in vivo
[26] = molecular target: Voltage-gated inwardly rectifying potassium channel KCNH2 (Homo sapiens, UniProt Q12809); test: Inhibition of hERG by patch-clamp method; assay type: toxicity
Sequence of Voltage-gated inwardly rectifying potassium channel KCNH2 (Q12809 whole entry): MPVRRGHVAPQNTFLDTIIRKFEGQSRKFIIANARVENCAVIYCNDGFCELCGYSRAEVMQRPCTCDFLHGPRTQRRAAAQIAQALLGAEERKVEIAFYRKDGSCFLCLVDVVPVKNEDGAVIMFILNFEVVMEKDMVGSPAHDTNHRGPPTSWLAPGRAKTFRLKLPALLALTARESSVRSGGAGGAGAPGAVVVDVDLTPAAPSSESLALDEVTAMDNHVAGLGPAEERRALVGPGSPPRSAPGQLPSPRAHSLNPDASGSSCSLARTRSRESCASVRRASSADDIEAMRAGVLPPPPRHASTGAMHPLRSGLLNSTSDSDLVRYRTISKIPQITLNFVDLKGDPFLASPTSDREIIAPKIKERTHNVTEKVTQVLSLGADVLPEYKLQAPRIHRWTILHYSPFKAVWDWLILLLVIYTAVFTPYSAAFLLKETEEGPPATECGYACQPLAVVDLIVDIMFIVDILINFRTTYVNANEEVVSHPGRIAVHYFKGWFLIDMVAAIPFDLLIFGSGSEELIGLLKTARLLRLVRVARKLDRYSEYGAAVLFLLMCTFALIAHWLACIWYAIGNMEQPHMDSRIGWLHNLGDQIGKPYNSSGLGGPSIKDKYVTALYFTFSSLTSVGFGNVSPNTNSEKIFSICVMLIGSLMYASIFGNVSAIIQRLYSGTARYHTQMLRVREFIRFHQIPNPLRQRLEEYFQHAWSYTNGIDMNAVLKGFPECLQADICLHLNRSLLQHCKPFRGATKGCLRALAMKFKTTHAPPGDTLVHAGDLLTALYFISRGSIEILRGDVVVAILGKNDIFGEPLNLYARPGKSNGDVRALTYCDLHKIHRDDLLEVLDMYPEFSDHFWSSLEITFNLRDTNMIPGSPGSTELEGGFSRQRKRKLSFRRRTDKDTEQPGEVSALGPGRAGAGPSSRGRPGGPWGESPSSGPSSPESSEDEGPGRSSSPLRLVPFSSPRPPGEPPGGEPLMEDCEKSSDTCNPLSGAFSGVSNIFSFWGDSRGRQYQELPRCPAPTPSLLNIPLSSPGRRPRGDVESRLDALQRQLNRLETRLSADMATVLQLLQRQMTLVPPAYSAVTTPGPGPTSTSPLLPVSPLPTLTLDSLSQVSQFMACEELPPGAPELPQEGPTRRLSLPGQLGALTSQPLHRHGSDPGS

[27] = Oral bioavailability in dog; assay type: ADME, organism-based, Canis lupus familiaris; conditions: in vivo
[28] = Oral bioavailability in rat; assay type: ADME, organism-based; conditions: in vivo
[29] = Drug metabolism in dog hepatocytes assessed as formation of N-methylated metabolites; assay type: ADME, cell-based, Canis lupus familiaris, Hepatocyte
[30] = Intrinsic clearance in human liver microsomes; assay type: ADME, Microsome; conditions: read-out: CLH
[31] = Unbound fraction in mouse brain at 3 to 75 mg/kg, po measured after 2 hrs; assay type: ADME, organism-based; conditions: in vivo, dose 3-75 mg/kg
[32] = Protection against paclitaxel-induced axon degeneration in C57/Bl6 mouse DRG neurons measured after 72 hrs by immunofluorescence based analysis; assay type: functional, cell-based; conditions: drg neuron
[33] = Clearance in IV-dosed rat; assay type: ADME; conditions: in vivo
[34] = Volume of distribution at steady state in IV-dosed rat; assay type: ADME; conditions: in vivo, read-out: Vdss
[35] = Intrinsic clearance in mouse liver microsomes; assay type: ADME, Microsome; conditions: read-out: CLH
[36] = Intrinsic clearance in dog liver microsomes; assay type: ADME, Canis lupus familiaris, Microsome; conditions: read-out: CLH
[37] = Cytotoxicity against human HepG2 cells; assay type: toxicity, cell-based
[38] = Inhibition of DLK in C57/Bl6 mouse DRG neuron model of paclitaxel-induced axon degeneration assessed as decrease in p-cJun level measured after 20 hrs by immunofluorescence based analysis; assay type: cell-based
[39] = Half life in IV-dosed dog; assay type: ADME, Canis lupus familiaris; conditions: in vivo
[40] = Volume of distribution at steady state in IV-dosed cynomolgous monkey; assay type: ADME, Macaca fascicularis; conditions: cynomolgus monkey, in vivo, read-out: Vdss
[41] = Ratio of unbound drug concentration in brain to plasma of mouse at 5 mg/kg; assay type: ADME, organism-based; conditions: brain and plasma, read-out: K(p,uu,brain)
[42] = Apparent permeability across apical to basal side in MDCK-MDR1 cells; assay type: ADME, cell-based, Canis lupus familiaris; conditions: dog
[43] = Efflux ratio in MDCK-MDR1 cells; assay type: ADME, cell-based, Canis lupus familiaris; conditions: dog
[44] = Oral bioavailability in mouse at 5 mg/kg; assay type: ADME, organism-based; conditions: in vivo
[45] = Kinetic solubility of compound at pH 6.8; assay type: physicochemical; conditions: buffer, read-out: Kinetic_solubility
[46] = Energy of neutralization, pKa of compound; assay type: physicochemical
[47] = Clearance in mouse at 5 mg/kg, po; assay type: ADME, organism-based; conditions: in vivo
[48] = Half life in mouse at 5 mg/kg, po; assay type: ADME, organism-based; conditions: in vivo
DRG neuron = test: Protection against paclitaxel-induced axon degeneration in C57/Bl6 mouse DRG neurons at 1 uM measured after 72 hrs by immunofluorescence based analysis; assay type: functional, cell-based

Kp uu [1]: 0.3
kinact (CYP3A [2]): 0.00117 s⁻¹
Ki [3]: 0.69 nM
half-life [4]: 4.8 h
Ki (CYP3A [5]): 170000 nM
clearance [6]: 5.3 mL/min/kg
Vd [7]: 1.6 L/kg
inhibition at 0.5 h, 30 µM (CYP3A4): 27.5%
Drug metabolism [8]: metabolite_detected
clearance [9]: 24 mL/min/kg
bioavailability [10]: 52%
clearance [11]: 5.5 mL/min/kg
Drug metabolism [12]: metabolite_detected
half-life [13]: 7.2 h
Ki [14]: 15 nM
IC50 [15]: 51 nM
IC50 [16]: 31 nM
bioavailability [17]: 53%
Vd [19]: 8.8 L/kg
Kp uu [20]: 0.6
concentration at 2 h [21]: 1000 ng/g
Drug metabolism [22]: metabolite_detected
Drug uptake(free) [23]: 14.5 ng/g
Drug metabolism [24]: metabolite_detected
half-life [25]: 12 h
bioavailability [27]: 81%
bioavailability [28]: 57%
Drug metabolism [29]: metabolite_detected
microsomal CLint [30]: < 3 µL/min/mg
Fu [31]: 1.5%
EC50 [32]: 363 nM
clearance [33]: 8.3 mL/min/kg
Vd [34]: 4.3 L/kg
microsomal CLint [35]: 18 µL/min/mg
microsomal CLint [36]: 5.8 µL/min/mg
IC50 [38]: 95 nM
half-life [39]: 6.6 h
Vd [40]: 4.8 L/kg
SMILES: CCn1nc(-c2cnc(N)c(OC(F)F)c2)c2ccn([C@@H]3CCC(F)(F)C[C@@H]3OC)c(=O)c21
Emax at 0.74 µM [18]: 72%
IC50 [26]: 9000 nM
IC50 [37]: 52000 nM

Ki [3]: 2.2 nM
IC50 [15]: 200 nM
microsomal CLint [30]: 3.2 µL/min/mg
microsomal CLint [35]: 9.7 µL/min/mg
microsomal CLint [36]: 5.4 µL/min/mg
SMILES: CCn1nc(-c2cnc(N)c(OC(F)(F)F)c2)c2ccn([C@H]3CC4(CC4)OC[C@H]3OC)c(=O)c21

Ki [3]: 3.5 nM
Ki [14]: 7 nM
IC50 [15]: 79 nM
EC50 [32]: 475 nM
IC50 [38]: 301 nM
SMILES: Nc1ncc(-c2cc(N3C[C@@H]4C[C@H]3CO4)nc(N3CCC(F)(F)C3)n2)cc1OC(F)F [GDC-0134]
Emax at 0.74 µM [18]: 75%

Ki [3]: 1.3 nM
Kp uu [41]: 0.22
IC50 [15]: 95 nM
microsomal CLint [30]: 12 µL/min/mg
microsomal CLint [35]: 21 µL/min/mg
microsomal CLint [36]: 21 µL/min/mg
SMILES: CCn1nc(-c2cnc(N)c(OC(F)(F)F)c2)c2ccn([C@H]3CCOC[C@H]3OC3CC3)c(=O)c21

Ki [3]: 0.3 nM
Papp A→B [42]: 10.6 ×10⁻⁶ cm/s
efflux ratio [43]: 1.6
bioavailability [44]: 85%
Kp uu [41]: 0.18
IC50 [15]: 23 nM
solubility kinetic [45]: 268 µM (≈ 108 µg/mL)
pKa [46]: 9.2
microsomal CLint [30]: 3 µL/min/mg
CL/F [47]: 43 mL/min/kg
half-life [48]: 3.8 h
microsomal CLint [35]: 15 µL/min/mg
SMILES: CCc1nc(-c2cnc(N)c(C(F)(F)F)c2)c2ccc(C3CCN(C)CC3)cn12
IC50 [26]: < 400 nM

Ki [3]: 1.1 nM
IC50 [15]: 130 nM
microsomal CLint [30]: 41 µL/min/mg
microsomal CLint [35]: 66 µL/min/mg
microsomal CLint [36]: 21 µL/min/mg
SMILES: CCn1nc(-c2cnc(N)c(OC(F)(F)F)c2)c2ccn([C@H]3CCN(C)C[C@H]3OC(F)(F)F)c(=O)c21

kinact (CYP3A [2]): 0.00113 s⁻¹
Ki [3]: 0.8 nM
Ki (CYP3A [5]): 12400 nM
Papp A→B [42]: 37.6 ×10⁻⁶ cm/s
efflux ratio [43]: 0.7
inhibition at 0.5 h, 30 µM (CYP3A4): 72%
bioavailability [44]: 141%
Kp uu [41]: 0.17
IC50 [15]: 48 nM
solubility kinetic [45]: 295 µM (≈ 124 µg/mL)
pKa [46]: 5.8
microsomal CLint [30]: 6 µL/min/mg
CL/F [47]: 40 mL/min/kg
EC50 [32]: 305 nM
half-life [48]: 0.8 h
microsomal CLint [35]: 1 µL/min/mg
SMILES: CCc1nc(-c2cnc(N)c(OC(F)(F)F)c2)c2ccc([C@H]3COCCN3C)cn12
Activity (DRG neuron): Active
IC50 [26]: 16000 nM
